From PubChem BioAssay (NCI)
Several values for one entry are separate records, joined by “and”; a condition that tells them apart may be missing. Equal values may be shown once.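 Briefly, cells in 96-well plates were exposed to five compound concentrations for 48 h, and endpoints were estimated by linear interpolation. GI50 = concentration required for 50% inhibition of growth. At the TGI there is no net growth.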

Key:
Assay in all cases: growth of human tumour cells (NCI), 48 h
[1] = tested on: OVCAR-8 ovarian
[2] = tested on: SK-MEL-28 melanoma
[3] = tested on: UACC-62 melanoma
[4] = tested on: A549 NSCLC
[5] = tested on: SK-OV-3 ovarian
[6] = tested on: COLO 205 colon
[7] = tested on: RXF 393 renal
[8] = tested on: HS 578T breast
[9] = tested on: HCT-116 colon
[10] = tested on: SNB-19 CNS

| Structure (SMILES) | GI50 [1] | TGI [1] | GI50 [2] | TGI [2] | GI50 [3] | TGI [3] | TGI [4] | GI50 [5] | TGI [5] | GI50 [6] | TGI [6] | TGI [7] | TGI [8] | TGI [9] | TGI [10] | GI50 [4] | GI50 [7] | GI50 [8] | GI50 [9] | GI50 [10] |
| --- | --- | --- | --- | --- | --- | --- | --- | --- | --- | --- | --- | --- | --- | --- | --- | --- | --- | --- | --- | --- |
| O=[N+]([O-])c1ccc(NC(=S)N/N=C(\c2ccccc2)c2ccccn2)cc1 | 0.0275 µM | 1.06 µM and 1.42 µM | 1.38 µM | 2.9 µM and 2.69 µM | 3.4 µM | 2.92 µM | 3.37 µM and 3.96 µM | 2.28 µM | 4.09 µM and 2.95 µM | 0.0423 µM | 2.52 µM and 3.88 µM | 2.83 µM and 3.06 µM | 9.39 µM | 3.21 µM | 3.12 µM and 2.97 µM |  |  |  |  |  |
| CC(=O)O[C@H](C[C@H](C(C)C)N(C)C(=O)[C@@H](NC(=O)[C@H]1CCCCN1C)C(C)(C)C)c1nc(C(=O)N[C@@H](Cc2ccccc2)C[C@H](C)C(=O)O)cs1 | < 0.0025 µM | > 25 µM | 1.05 µM | > 25 µM | < 0.0025 µM | > 25 µM | > 25 µM | < 0.0025 µM | > 25 µM | < 0.0025 µM | 0.0053 µM | > 25 µM | > 23.6 µM | > 25 µM | > 25 µM | < 0.0025 µM | < 0.0025 µM | < 0.0025 µM | < 0.0025 µM | < 0.0025 µM |
| S=C(Nc1ccccc1)N1CCn2c1nsc2=Nc1ccccc1 | > 100 µM | > 100 µM | > 100 µM | > 100 µM | 45.9 µM | > 100 µM | > 100 µM | > 100 µM | > 100 µM | > 100 µM | > 100 µM | > 100 µM | > 100 µM | > 100 µM | > 100 µM | > 100 µM | > 100 µM | 53.4 µM | 34.6 µM | > 100 µM |
| CCCNc1cccc(-n2ncc3c(N/N=C/c4ccncc4)ncnc32)c1 | 11.7 µM | > 25 µM | > 10 µM | > 25 µM | > 7.76 µM | > 25 µM | > 25 µM | 6.92 µM | > 25 µM | > 25 µM | > 25 µM | > 25 µM | > 25 µM | > 25 µM | > 25 µM | > 7.61 µM | 1.07 µM | 1.1 µM | 1.82 µM | > 25 µM |
| COc1cccc2ccc3c(c12)C(=O)OC31CCc2c(C)cccc21 (configuration not stated) |  | > 46.4 µM |  | > 46.4 µM |  | > 46.4 µM | > 46.4 µM |  | > 46.4 µM |  | > 46.4 µM | 44.6 µM | > 100 µM | > 31.6 µM | > 46.4 µM |  |  |  |  |  |
| CCC1OC(/C(C)=C/C(C)/C=C/C2C(C)C2/C=C/C2OC(CC(=O)O)CC(O)C2O)CC=C1C (configuration not stated) | > 50 µM | > 50 µM | > 50 µM | > 50 µM | > 50 µM | > 50 µM | > 50 µM | > 50 µM | > 50 µM | > 50 µM | > 50 µM | > 50 µM | > 50 µM | > 50 µM | > 50 µM | > 50 µM | > 50 µM | > 50 µM | > 50 µM | > 50 µM |
| O=c1oc2cc(OS(=O)(=O)c3ccccc3)ccc2c2c1CCCCC2 | 86.1 µM | > 100 µM | > 100 µM | > 100 µM | 4.73 µM | > 100 µM | > 100 µM | > 100 µM | > 100 µM | 3.51 µM | > 100 µM | > 100 µM | > 100 µM | > 100 µM | > 100 µM | 4.78 µM | 4.55 µM | > 100 µM | 3.62 µM | > 100 µM |
| Cc1nn2c(/C=C3\C(=O)Nc4ccccc43)c(C)nc2s1 | 77.8 µM | > 100 µM | > 100 µM | > 100 µM | 35.5 µM | > 100 µM | > 100 µM | 34.8 µM | > 100 µM | 5.33 µM | 63.4 µM | 87.6 µM | > 100 µM | > 100 µM | > 100 µM | 32.7 µM | 26.2 µM | 78 µM | 15.7 µM | 45.7 µM |
| O=S1(=O)CC(Br)C(Br)C1 (configuration not stated) | 4.85 µM | 18.4 µM | 3.64 µM | 13.7 µM | 5.39 µM | 18.7 µM | 28.9 µM | 23.2 µM | 90 µM | 1.61 µM | 3.17 µM | 2.64 µM | 76.3 µM | 6.53 µM | > 100 µM | 13.5 µM | 1.11 µM | 5.5 µM | 2.34 µM | 29.4 µM |
| CS(=O)(=O)Nc1cc(-c2ccc3ncnc(Nc4cccc(Cl)c4F)c3c2)cnc1Cl | 4.03 µM | 58.5 µM | 1.59 µM | 9.27 µM | 1.76 µM | 11.7 µM | 24.1 µM | 1.99 µM | 8.81 µM | 4.23 µM | 27.8 µM | 4.93 µM | 2.77 µM | 19.9 µM | 16.1 µM | 5.3 µM | 1.67 µM | 0.274 µM | 4.02 µM | 2.83 µM |
| COc1cc(CC2CC(c3ccc4c(c3)OCO4)OC2=O)cc(OC)c1OC (configuration not stated) |  | > 100 µM |  | > 100 µM |  | > 100 µM | > 100 µM |  | > 100 µM |  | > 100 µM | > 100 µM | > 100 µM | > 100 µM | > 100 µM |  |  |  |  |  |
| CN(C)CCNc1c2c(c(NCCN(C)C)c3c(CO)c[nH]c13)C(=O)c1ccccc1C2=O | 8.53 µM | > 39.4 µM | 5.01 µM | 10.6 µM | 7.64 µM | 21.7 µM | > 37.6 µM | 4.64 µM | 20.8 µM | 2.74 µM | > 37.5 µM | 12.5 µM | 13.6 µM | 10.9 µM | 22.3 µM | 3.41 µM | 3.83 µM | 3.36 µM | 0.721 µM | 6.09 µM |
| Cc1ccc(S(=O)(=O)c2ccsc2N)cc1 | > 100 µM | > 100 µM | > 100 µM | > 100 µM | > 100 µM | > 100 µM | > 100 µM | > 100 µM | > 100 µM | > 100 µM | > 100 µM | > 100 µM | > 100 µM | > 100 µM | > 100 µM | > 100 µM | 63.9 µM | > 100 µM | > 100 µM | > 100 µM |
| S=c1[nH]nc(SCc2ccccc2Cl)c2[nH]cnc12 |  | > 100 µM |  | > 100 µM |  | > 100 µM | > 100 µM |  | > 100 µM |  | > 100 µM | > 100 µM | > 100 µM | > 100 µM | > 100 µM |  |  |  |  |  |
| O=C1NC(O)CCN1C1CC(O)C(CO)O1 (configuration not stated) |  | > 100 µM |  | > 100 µM |  | > 100 µM | > 100 µM |  | > 100 µM |  | > 100 µM | > 100 µM | > 100 µM | > 100 µM | > 100 µM |  |  |  |  |  |
| Cc1c(N)nc(C(CC(N)=O)NCC(N)C(N)=O)nc1C(=O)NC(C(=O)NC(C)C(O)C(C)C(=O)NC(C(=O)NCCc1nc(-c2nc(C(=O)NCCCNCCCCN)cs2)cs1)C(C)O)C(OC1OC(CO)C(O)C(O)C1OC1OC(CO)C(O)C(OC(N)=O)C1O)c1cnc[nH]1 (configuration not stated) | 2.1 µg/mL and 1.04 µg/mL | 9.85 µg/mL and 25.1 µg/mL and > 10 µM | 48 µg/mL | > 10 µM | 0.605 µg/mL and 0.744 µg/mL | 25.6 µg/mL and > 10 µM | > 10 µM | 8.67 µg/mL | > 10 µM | 8.7 µg/mL and 4.7 µg/mL | > 10 µM | 3.45 µM | 38.4 µg/mL | 26.8 µg/mL and > 10 µM | > 10 µM | 2.69 µg/mL and 1.06 µg/mL |  | 5.69 µg/mL and 0.24 µg/mL | 0.288 µg/mL and 1.04 µg/mL | 8.2 µg/mL and 29.7 µg/mL |
| O=c1[nH]cnc2nc(-c3ccc(N(CCCl)CCCl)cc3)[nH]c12 | 8.89 µM | > 100 µM | > 100 µM | > 100 µM | 0.507 µM | 71.6 µM | > 100 µM | 5.17 µM | 42.8 µM | > 100 µM | > 100 µM | 50.7 µM | > 100 µM | > 100 µM | > 100 µM | 6.19 µM | 15.8 µM | 27.2 µM | 12.6 µM | 19.3 µM |
| CN1N=Nc2c(C(F)(F)F)nn(-c3ccccc3)c2N(C)C1=O |  | > 100 µM | > 100 µM | > 100 µM | > 100 µM | > 100 µM | > 100 µM | > 100 µM | > 100 µM | > 47.9 µM | > 70.4 µM | > 100 µM | > 100 µM | > 100 µM | > 100 µM | > 100 µM |  | > 100 µM | > 100 µM | > 100 µM |
| O=C(O)c1ccc2cccnc2c1O | 1.27 µM | > 59.1 µM | 3.69 µM | > 100 µM | 1.54 µM | 9.64 µM | 25.8 µM | 1.7 µM | 4.89 µM | 4.23 µM | 10.1 µM | 36.4 µM | > 79.8 µM | 25 µM | > 100 µM | 0.747 µM | 1.94 µM | 0.724 µM | 0.532 µM | 1.48 µM |
| CC1(C)N=C(N)N=C(N)N1c1ccc(OCCCCNC(=O)c2ccc(S(=O)(=O)F)cc2)c(Cl)c1 | 4.82 µM | > 100 µM | 54.1 µM | > 100 µM | 4.27 µM | > 100 µM | > 100 µM | > 100 µM | > 100 µM | 68.4 µM | > 100 µM | > 100 µM | > 100 µM | > 100 µM | > 100 µM | 4.17 µM | 8.99 µM | > 100 µM | 3.53 µM | 13.6 µM |
